Our source for the EC50 values is BindingDB's records for patent US20190276450 (Abbvie, 2019).

pEC50: −log10 of the molar value.

Assay [1] deals with Non-receptor tyrosine-protein kinase TYK2 (Homo sapiens, UniProt P29597). Description: TYK2 (TYK2/JAK2 PSTAT4 T-BLAST) Alpha Screen Assay. As to the method:
IL-12 is known to transduce its signal through IL-12 receptor via Jak2 and/or Tyk2. For that reason, the activity against Tyk2/Jak2 was measured by determining the inhibition of IL-12 induced phosphorylation of STAT4 in T-blast cells. […] See, e.g., Sohn et al., J. Immunology (2013) 2205-2216.

In assay [2] the target is Tyrosine-protein kinase JAK2 (Homo sapiens, UniProt O60674). Put plainly: JAK2 (PSTAT5 UT7) Alpha Screen Assay. The method, then: Erythropoietin (EPO) is known to transduce its signal through EPO receptor via Jak2. Activity against Jak2 was therefore measured by determining inhibition of EPO induced phosphorylation of […] in UT7 cells. From these tests, the EC50 (effective concentration for 50% maximal response) values were determined in 1 μM for the test compounds.
Sequence of Tyrosine-protein kinase JAK2 (O60674 whole entry): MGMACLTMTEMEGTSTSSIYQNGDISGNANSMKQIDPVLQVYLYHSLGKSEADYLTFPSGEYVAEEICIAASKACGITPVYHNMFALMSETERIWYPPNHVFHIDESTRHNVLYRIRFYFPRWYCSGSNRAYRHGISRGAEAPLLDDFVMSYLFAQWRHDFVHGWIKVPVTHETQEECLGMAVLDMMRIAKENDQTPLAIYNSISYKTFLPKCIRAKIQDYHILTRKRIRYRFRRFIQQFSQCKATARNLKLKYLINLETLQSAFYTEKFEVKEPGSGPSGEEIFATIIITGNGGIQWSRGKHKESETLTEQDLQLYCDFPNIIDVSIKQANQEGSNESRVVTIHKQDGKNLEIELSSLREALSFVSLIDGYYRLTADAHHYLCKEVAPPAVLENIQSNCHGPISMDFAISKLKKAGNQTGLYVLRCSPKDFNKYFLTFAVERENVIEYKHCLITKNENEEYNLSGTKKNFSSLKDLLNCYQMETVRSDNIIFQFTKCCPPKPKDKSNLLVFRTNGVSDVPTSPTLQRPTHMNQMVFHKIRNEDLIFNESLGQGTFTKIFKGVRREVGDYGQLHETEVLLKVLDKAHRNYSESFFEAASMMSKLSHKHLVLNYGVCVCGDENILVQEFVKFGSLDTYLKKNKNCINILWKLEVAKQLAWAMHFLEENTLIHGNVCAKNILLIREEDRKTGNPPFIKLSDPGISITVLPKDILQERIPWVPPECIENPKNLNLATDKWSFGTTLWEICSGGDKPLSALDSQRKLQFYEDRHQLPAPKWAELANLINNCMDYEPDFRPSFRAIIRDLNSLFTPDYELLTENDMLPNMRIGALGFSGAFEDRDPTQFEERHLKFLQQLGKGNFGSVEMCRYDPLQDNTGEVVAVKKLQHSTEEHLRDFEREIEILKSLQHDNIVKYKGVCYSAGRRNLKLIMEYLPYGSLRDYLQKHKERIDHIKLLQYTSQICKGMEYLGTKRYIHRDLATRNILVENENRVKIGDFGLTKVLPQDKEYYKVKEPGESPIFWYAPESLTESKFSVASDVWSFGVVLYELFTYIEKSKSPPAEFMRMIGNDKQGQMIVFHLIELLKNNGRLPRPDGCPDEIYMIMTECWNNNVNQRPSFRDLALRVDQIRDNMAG

Assay [3] deals with Tyrosine-protein kinase JAK1 (Homo sapiens, UniProt P23458). Put plainly: JAK1 (PSTAT3 TF1) Alpha Screen Assay. The method, then: IL-6 is known to transduce its signal through IL-6 receptor via Jak1. Activity against Jak was therefore measured by determining inhibition of IL-6 induced phosphorylation of STAT3 in TF1 cells. From these tests, the EC50 (effective concentration for 50% maximal response) values were determined in 1 μM for the test compounds.
Sequence of Tyrosine-protein kinase JAK1 (P23458 whole entry): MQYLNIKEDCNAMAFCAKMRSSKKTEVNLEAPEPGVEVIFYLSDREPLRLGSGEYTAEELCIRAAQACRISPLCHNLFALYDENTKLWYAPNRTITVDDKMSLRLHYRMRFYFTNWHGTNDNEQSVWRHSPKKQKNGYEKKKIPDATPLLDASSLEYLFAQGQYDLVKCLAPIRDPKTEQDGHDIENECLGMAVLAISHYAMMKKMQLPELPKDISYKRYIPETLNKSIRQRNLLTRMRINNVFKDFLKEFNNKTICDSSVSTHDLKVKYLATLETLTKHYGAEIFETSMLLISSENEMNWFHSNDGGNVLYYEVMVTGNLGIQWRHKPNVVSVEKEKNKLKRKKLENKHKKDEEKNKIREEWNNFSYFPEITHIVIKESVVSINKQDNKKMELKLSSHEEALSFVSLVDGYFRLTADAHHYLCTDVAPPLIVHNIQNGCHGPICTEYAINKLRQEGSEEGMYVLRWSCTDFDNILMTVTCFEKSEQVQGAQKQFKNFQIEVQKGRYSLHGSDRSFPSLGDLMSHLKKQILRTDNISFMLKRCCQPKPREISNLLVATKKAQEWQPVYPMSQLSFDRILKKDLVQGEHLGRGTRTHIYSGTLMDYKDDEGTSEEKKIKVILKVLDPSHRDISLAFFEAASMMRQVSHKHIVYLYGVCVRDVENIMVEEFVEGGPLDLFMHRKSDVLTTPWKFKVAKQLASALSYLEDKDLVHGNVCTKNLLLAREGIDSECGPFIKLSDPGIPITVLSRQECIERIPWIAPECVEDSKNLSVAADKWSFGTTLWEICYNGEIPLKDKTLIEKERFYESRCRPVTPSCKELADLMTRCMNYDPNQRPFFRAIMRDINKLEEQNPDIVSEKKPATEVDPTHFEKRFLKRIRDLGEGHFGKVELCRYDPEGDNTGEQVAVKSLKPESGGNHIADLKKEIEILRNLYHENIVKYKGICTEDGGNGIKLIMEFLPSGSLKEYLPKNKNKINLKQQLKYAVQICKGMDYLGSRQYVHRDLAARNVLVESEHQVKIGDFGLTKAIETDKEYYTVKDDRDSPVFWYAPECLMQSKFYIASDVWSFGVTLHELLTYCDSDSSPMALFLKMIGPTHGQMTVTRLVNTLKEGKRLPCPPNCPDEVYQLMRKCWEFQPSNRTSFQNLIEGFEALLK

As usually defined, the pEC50 is the negative decadic logarithm of the EC50, by convention in mol/L. Read a low pEC50 as a large EC50.

Sequence of Non-receptor tyrosine-protein kinase TYK2 (P29597 whole entry): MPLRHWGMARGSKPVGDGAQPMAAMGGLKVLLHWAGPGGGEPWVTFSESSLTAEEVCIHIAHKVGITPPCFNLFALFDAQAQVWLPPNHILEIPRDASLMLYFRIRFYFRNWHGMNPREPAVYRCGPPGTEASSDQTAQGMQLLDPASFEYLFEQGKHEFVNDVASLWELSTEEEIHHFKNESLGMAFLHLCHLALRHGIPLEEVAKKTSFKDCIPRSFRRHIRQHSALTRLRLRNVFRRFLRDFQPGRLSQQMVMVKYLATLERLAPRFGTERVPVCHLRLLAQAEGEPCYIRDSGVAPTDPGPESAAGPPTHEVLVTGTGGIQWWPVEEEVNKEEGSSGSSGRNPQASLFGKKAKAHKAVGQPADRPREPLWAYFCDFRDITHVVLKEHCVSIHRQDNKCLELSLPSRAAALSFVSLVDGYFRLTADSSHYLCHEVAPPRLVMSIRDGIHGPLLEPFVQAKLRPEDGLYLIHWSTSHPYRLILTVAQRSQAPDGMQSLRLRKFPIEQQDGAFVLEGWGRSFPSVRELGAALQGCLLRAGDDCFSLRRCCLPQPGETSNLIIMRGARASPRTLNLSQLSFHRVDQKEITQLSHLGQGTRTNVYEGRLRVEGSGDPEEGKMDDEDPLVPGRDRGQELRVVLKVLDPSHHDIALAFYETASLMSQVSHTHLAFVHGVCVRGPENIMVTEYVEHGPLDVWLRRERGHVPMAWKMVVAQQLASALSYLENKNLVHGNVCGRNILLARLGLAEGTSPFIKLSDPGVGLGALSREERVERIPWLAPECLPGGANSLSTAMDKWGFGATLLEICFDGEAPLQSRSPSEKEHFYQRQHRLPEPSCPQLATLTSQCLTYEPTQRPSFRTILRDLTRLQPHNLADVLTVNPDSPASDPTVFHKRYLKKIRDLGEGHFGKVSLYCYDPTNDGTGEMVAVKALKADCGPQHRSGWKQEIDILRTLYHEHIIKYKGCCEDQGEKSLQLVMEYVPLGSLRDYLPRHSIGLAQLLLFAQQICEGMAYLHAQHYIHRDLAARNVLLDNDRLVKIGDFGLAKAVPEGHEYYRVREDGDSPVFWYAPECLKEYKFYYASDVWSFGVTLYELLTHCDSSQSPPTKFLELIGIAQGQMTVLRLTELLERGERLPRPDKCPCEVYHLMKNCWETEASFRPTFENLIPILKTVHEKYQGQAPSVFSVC

Take `COC1(c2cccc(-c3cn(C)c4cnc(NC(N)=O)cc34)n2)COC1` [US20190276450, Example 1b.4]: the figures for the pEC50 in assay [1], in assay [2] and in assay [3] were 6.85, less than 4.60 and 5.12, respectively.
As for `CO[C@@]1(c2cc(C(F)F)cc(-c3cn(C4COC4)c4cnc(NC(C)=O)cc34)n2)CCOC1` [US20190276450, Example 4.3], the pEC50 in assay [1] was 6.76; in assay [2], less than 4.60; in assay [3], 4.27.
For `COc1cc(-c2cn(C)c3cnc(NC(N)=O)cc23)nc([C@]2(OC)CCOC2)c1` [US20190276450, Example 12.6], in that order: 7.41, less than 4.60 and 4.82.
Consider `CC(=O)Nc1cc2c(-c3cccc([C@]4(CO)CCOC4)n3)cn(C)c2cn1` [US20190276450, Example 21], for which the pEC50 is 7.10 in assay [1], less than 4.60 in assay [2] and 5.55 in assay [3].
In the same order, the values of `CO[C@@]1(c2cc(O[C@H]3C[C@H](O)C3)cc(-c3cn(C)c4cnc(NC(C)=O)cc34)n2)CCOC1` [US20190276450, Example 11] are 7.28, less than 4.60 and 4.64.
Regarding `CO[C@@]1(c2cccc(-c3cn(C)c4cnc(NC(N)=O)cc34)n2)CCOC1` [US20190276450, Example 1], the pEC50 was 7.23 in assay [1], less than 4.60 in assay [2] and 5.26 in assay [3].
Take `COc1cc(-c2cn(C)c3cnc(NC(C)=O)cc23)nc([C@]2(CO)CCOC2)c1` [US20190276450, Example 22.6]: the pEC50 in assay [1] is 6.89; in assay [2] it was less than 4.60; in assay [3], 4.95.
In the same order, the values of `CC[C@]1(c2cc(C#N)cc(-c3cn(C)c4cnc(NC(C)=O)cc34)n2)CCOC1` [US20190276450, Example 2.11] are 6.98, less than 4.60 and 5.12.
For `CC[C@@]1(c2cccc(-c3cn(C)c4cnc(NC(N)=O)cc34)n2)CCOC1` [US20190276450, Example 3.2], in that order: 7.85, less than 4.60 and 5.47.
In the case of `COCc1cc(-c2cn(C)c3cnc(NC(C)=O)cc23)nc([C@]2(CO)CCOC2)c1` [US20190276450, Example 22], the pEC50 in assay [1] is 6.84; in assay [2] it was less than 4.60; in assay [3], 4.98.
Consider `CO[C@@]1(c2cc(OCC3COC3)cc(-c3cn(C)c4cnc(NC(C)=O)cc34)n2)CCOC1` [US20190276450, Example 6], for which the results for the pEC50 in assay [1], in assay [2] and in assay [3] were 7.30, less than 4.60 and 4.68, respectively.
In the case of `CC(=O)Nc1cc2c(-c3cc(C(F)F)cc([C@]4(CO)CCOC4)n3)cn(C)c2cn1` [US20190276450, Example 22.5], the pEC50 is 7.14 in assay [1], less than 4.60 in assay [2] and 5.15 in assay [3].
Regarding `CO[C@@]1(c2cc(OCCO)cc(-c3cn(C)c4cnc(NC(C)=O)cc34)n2)CCOC1` [US20190276450, Example 10], the pEC50 in assay [1] is 7.04; in assay [2] it was less than 4.60; in assay [3], 4.57.
With `COCCOc1cc(-c2cn(C)c3cnc(NC(C)=O)cc23)nc([C@]2(CO)CCOC2)c1` [US20190276450, Example 22.8], the pEC50 in assay [1] was 6.74; in assay [2] it was less than 4.60; in assay [3] it was 4.72.
For `COCc1cc(-c2cn(C)c3cnc(NC(=O)CO)cc23)nc([C@]2(OC)CCOC2)c1` [US20190276450, Example 24], in that order: 7.04, less than 4.60 and less than 4.00.
Turning to `CO[C@@]1(c2cc(C)cc(-c3cn(C)c4cnc(NC(N)=O)cc34)n2)CCOC1` [US20190276450, Example 1b.2], the pEC50 was 7.60 in assay [1], less than 4.60 in assay [2] and 4.68 in assay [3].
In the same order, the values of `CO[C@@]1(c2cc(OCC[C@H](C)O)cc(-c3cn(C)c4cnc(NC(C)=O)cc34)n2)CCOC1` [US20190276450, Example 9] are 7.07, less than 4.60 and 4.38.
In the same order, the values of `CO[C@@]1(c2cc(O[C@@H](C)CCO)cc(-c3cn(C)c4cnc(NC(C)=O)cc34)n2)CCOC1` [US20190276450, Example 14.4] are 6.87, less than 4.60 and 4.20.
For `CO[C@@]1(c2cc(C(F)F)cc(-c3cn(C)c4cnc(NC(=O)CO)cc34)n2)CCOC1` [US20190276450, Example 26], in that order: 7.30, less than 4.60 and less than 4.60.
With `COCc1cc(-c2cn(C)c3cnc(NC(C)=O)cc23)nc([C@]2(OC)CCOC2)c1` [US20190276450, Example 2], the pEC50 in assay [1] was 6.90; in assay [2] it was less than 4.60; in assay [3], less than 4.40.
As to `Cn1cc(-c2cncc([C@@]3(C)CCOC3)n2)c2cc(NC(N)=O)ncc21` [US20190276450, Example 1b.6], the results for the pEC50 in assay [1], in assay [2] and in assay [3] were 6.71, less than 4.60 and 5.38, respectively.
In the same order, the values of `CO[C@@]1(c2cc(C(F)F)cc(-c3cn(C)c4cnc(NC(C)=O)cc34)n2)CCOC1` [US20190276450, Example 2.8] are 7.38, less than 4.60 and 4.77.
For `CO[C@@]1(c2cc(C)cc(-c3cn(C)c4cnc(NC(C)=O)cc34)n2)CCOC1` [US20190276450, Example 2.2], in that order: 6.70, less than 4.60 and 4.39.
For `CO[C@@]1(c2cc(C(F)F)cc(-c3cn([C@H]4C[C@H](C#N)C4)c4cnc(NC(C)=O)cc34)n2)CCOC1` [US20190276450, Example 17.2], in that order: 6.84, less than 4.60 and 4.46.
For the compound `CO[C@@]1(c2cc(C)cc(-c3cn([C@H]4C[C@@H](C#N)C4)c4cnc(NC(C)=O)cc34)n2)CCOC1` [US20190276450, Example 17.5], the pEC50 in assay [1] is 8.30; in assay [3], 4.49.
Consider `COCCOc1cc(-c2cn(C)c3cnc(NC(C)=O)cc23)nc([C@]2(OC)CCOC2)c1` [US20190276450, Example 25], for which the pEC50 in assay [1] is 7.60; in assay [2], less than 4.60; in assay [3] it was 4.31.
As for `CO[C@@]1(c2cc(C(F)F)cc(-c3cn([C@@H]4CCOC4)c4cnc(NC(N)=O)cc34)n2)CCOC1` [US20190276450, Example 12b.2], the negative logarithm of the EC50 (pEC50) in assay [1] is 7.82; in assay [3], 4.40.
Consider `CO[C@@]1(c2cc(C#N)cc(-c3cn([C@@H]4CC4(F)F)c4cnc(NC(C)=O)cc34)n2)CCOC1` [US20190276450, Example 2a.3], for which the pEC50 in assay [1] was 6.90; in assay [2], less than 4.60; in assay [3] it was 4.25.
With `CO[C@@]1(c2cccc(-c3cn([C@H]4C[C@H](C#N)C4)c4cnc(NC(C)=O)cc34)n2)CCOC1` [US20190276450, Example 17], the pEC50 in assay [1] was 7.51; in assay [2], less than 4.60; in assay [3], 4.57.
For `CO[C@@]1(c2cccc(-c3cn([C@@H]4CC4(F)F)c4cnc(NC(N)=O)cc34)n2)CCOC1` [US20190276450, Example 1.2], in that order: 7.35, less than 4.60 and 4.87.
On to `COc1cc(-c2cn(C)c3cnc(NC(C)=O)cc23)nc([C@]2(OC)CCOC2)c1` [US20190276450, Example 20], for which the negative logarithm of the EC50 (pEC50) in assay [1] is 6.86; in assay [3] it was 4.35.
Consider `CO[C@@]1(c2cc(OC(F)F)cc(-c3cn(C)c4cnc(NC(C)=O)cc34)n2)CCOC1` [US20190276450, Example 22.2], for which the results for the pEC50 in assay [1], in assay [2] and in assay [3] were 7.05, less than 4.60 and 4.46, respectively.
In the same order, the values of `CO[C@@]1(c2cc(C#N)cc(-c3cn(C)c4cnc(NC(N)=O)cc34)n2)CCOC1` [US20190276450, Example 12.3] are 7.03, less than 4.60 and 4.89.
With `CO[C@@]1(c2cc(OC3COC3)cc(-c3cn(C)c4cnc(NC(C)=O)cc34)n2)CCOC1` [US20190276450, Example 8], the pEC50 was 7.05 in assay [1] and 4.66 in assay [3].
On to `CO[C@@]1(c2cc(OC[C@@H](C)O)cc(-c3cn(C)c4cnc(NC(C)=O)cc34)n2)CCOC1` [US20190276450, Example 14.6], for which the results for the pEC50 in assay [1], in assay [2] and in assay [3] were 7.06, less than 4.60 and 4.31, respectively.
`COCc1cc(-c2cn(C)c3cnc(NC(C)=O)cc23)nc([C@@]2(CO)CCOC2)c1` [US20190276450, Example 22a]: the pEC50 in assay [1] was 5.92; in assay [2], less than 4.60.
Regarding `CO[C@@]1(c2cc(OC[C@H](C)O)cc(-c3cn(C)c4cnc(NC(C)=O)cc34)n2)CCOC1` [US20190276450, Example 14.5], the values for the pEC50 in assay [1], in assay [2] and in assay [3] were 6.84, less than 4.60 and 4.15, respectively.
Turning to `CO[C@@]1(c2cc(OCC[C@@H](C)O)cc(-c3cn(C)c4cnc(NC(C)=O)cc34)n2)CCOC1` [US20190276450, Example 7], the pEC50 in assay [1] was 6.06; in assay [2], less than 4.60; in assay [3], 4.47.
Regarding `NC(=O)Nc1cc2c(-c3cccc(C4(O)COC4)n3)cn([C@@H]3CCOC3)c2cn1` [US20190276450, Example 15], the pEC50 in assay [1] was 6.04; in assay [3], 4.14.
